Patent US11185527B2, “Methods and compositions relating to steroid hormone receptor-dependent cancers” (Wayne State University, priority 2017, dated 2021)

Assays:
Full length human AR = biological target: T1, Full length human AR (Homo sapiens, UniProt P10275); test: Surface plasmon resonance, compound (analyte) binding to immobilized AR; conditions: SPR, compound as analyte
T1 construct: Full length human AR expressed in insect cells; purchased Abcam (Cambridge Mass.) ab82609; host or cells: insect cells
T1 sequence (P10275 1-920): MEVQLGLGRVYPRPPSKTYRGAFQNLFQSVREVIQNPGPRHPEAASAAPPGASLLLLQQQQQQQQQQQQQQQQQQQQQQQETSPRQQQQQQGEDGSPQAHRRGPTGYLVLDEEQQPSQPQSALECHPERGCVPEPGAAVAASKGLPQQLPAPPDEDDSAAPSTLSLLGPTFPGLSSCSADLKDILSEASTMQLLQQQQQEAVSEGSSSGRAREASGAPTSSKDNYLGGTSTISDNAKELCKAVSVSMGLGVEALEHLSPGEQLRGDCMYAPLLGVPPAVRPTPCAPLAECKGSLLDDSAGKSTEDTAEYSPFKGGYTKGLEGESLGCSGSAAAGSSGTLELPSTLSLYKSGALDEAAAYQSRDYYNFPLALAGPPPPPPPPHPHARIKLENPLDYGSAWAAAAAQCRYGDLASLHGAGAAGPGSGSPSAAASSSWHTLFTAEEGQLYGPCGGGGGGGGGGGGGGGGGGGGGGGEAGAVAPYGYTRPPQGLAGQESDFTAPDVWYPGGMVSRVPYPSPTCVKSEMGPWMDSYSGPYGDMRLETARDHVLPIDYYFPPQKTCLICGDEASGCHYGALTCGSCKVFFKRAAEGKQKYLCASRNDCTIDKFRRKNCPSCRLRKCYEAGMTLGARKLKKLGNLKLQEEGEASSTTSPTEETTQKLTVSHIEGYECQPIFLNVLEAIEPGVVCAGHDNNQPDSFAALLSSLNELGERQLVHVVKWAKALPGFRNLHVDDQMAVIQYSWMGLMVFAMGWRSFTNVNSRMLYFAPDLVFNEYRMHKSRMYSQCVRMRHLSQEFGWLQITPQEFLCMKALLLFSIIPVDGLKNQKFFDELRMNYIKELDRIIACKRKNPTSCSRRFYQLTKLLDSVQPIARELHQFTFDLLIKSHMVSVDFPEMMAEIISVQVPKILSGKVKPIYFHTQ
Description: FIG. 2A is a graph showing surface plasmon resonance (SPR) kinetic curves for quantitative analyses of KCI807 binding to AR.
The proteins were eluted with 200 mM imidazole and dialysed against […], pH 7.9 containing 10% glycerol, 20 mM KCl, 2 mM MgCl2, 0.2 mM EDTA, 0.5 mM benzamidine and 0.5 mM DTT.
Amine Coupling Kit, CM5 sensor chip and HBS-N buffer (GE Healthcare) were used for surface plasmon resonance (SPR) analysis. The rate and equilibrium binding constants of the interaction of AR with KCI807 was determined using Biacore 3000 (Biacore, Piscataway, N.J.). […] The immobilization involved activation of carboxymethyl groups on a dextran-coated chip by reaction with N-hydroxysuccinimide, followed by covalent bonding of the ligand (AR) to the chip surface via amide linkages. Reference surfaces were prepared in the same manner but blocked with ethanolamine and thus contained no ligand. […] The interaction (response units, RU) between analyte and ligand was recorded as the ligand RU minus the reference RU. Kinetic values were determined using BIAevaluation software (Biacore), and the data were fitted with the model showing closest match, according to methods described in Drescher DG et al., Methods Mol. Biol., (Clifton, N. J.). […] A 1:1 Langmuir binding model was generally selected, in which all the sensorgrams representing the different analyte concentrations were fitted simultaneously with the wide window of association and dissociation phases. Individual concentration curves were also evaluated to confirm the fitting data. The equilibrium dissociation constant (Kd) was calculated by kd=koff/kon. In all cases, baseline was established in the presence of the vehicle used for the compounds (DMSO) appropriately diluted in BBS-N buffer.

ZR-75-1 cells = test: Breast cancer cell growth, MTT assay; format: cell-based
Description: FIG. 17A is a graph showing the effect on growth of various concentrations of 5,3′-Dihydroxyflavone on breast cancer cell line ZR-75-1 using the MTT assay.
Twenty four hours after plating the cells, they were treated with the indicated concentrations of the compound.

[1] = system: protein level of AR or AR-V7; test: Western blot of AR in LNCaP, VCaP and 22Rv1 cells; format: cell-based; conditions: VCaP, 10 μM, 24h
Description: Protein lysates were extracted after 24h of treatment and probed using antibodies to AR and GAPDH (loading control).
The treated cells were washed once with phosphate buffered saline (PBS) and then lysed with RIPA buffer (150 mM NaCl, 1% Nonidet P-40, 0.5% sodium deoxycholate, 0.1% SDS, 50 mM Tris of pH 8.0) containing a protease inhibitor cocktail (Pierce, Thermo Fisher Scientific). The cell lysates were then incubated on ice for 40 minutes and vortexed every 10 minutes. Total protein concentrations were estimated using the Bradford Assay (Bio-Rad). Ten micrograms of each protein sample was heated at 95° C. for 5 minutes and resolved by electrophoresis on 8% polyacrylamide-SDS gels and electrophoretically transferred to PVDF membranes (Millipore, Billerica, Mass.). The membranes were then probed overnight at 4° C. with the appropriate primary antibody followed by the appropriate horseradish peroxidase-conjugated secondary antibody. The blots were then developed to visualize the protein bands using the HyGLO

[2] = Body weight and condition of mice in the PDX-PR011 xenograft study; conditions: for % body weight lost/gained: PDX-PR011 study
binding of AR to ELK1 = binding of AR to ELK1 (Homo sapiens, UniProt P10275); test: SPR competition: inhibition of binding of AR (analyte) to immobilized ELK1; conditions: AR 200 nM as analyte
Description: The sensor surface was regenerated between experiments by dissociating any formed complex in HBS-N buffer for 30 min, followed by a further 30-min stabilization period. After regeneration, the SPR signal returned to the original level (baseline). In all cases, baseline was established in the presence of the vehicle used for the compounds (DMSO) appropriately diluted in HBS-N buffer. The binding curves were analyzed using the heterogeneous analyte competition model. The kinetic curves were analyzed for a one-to-one Langmuir fitting model provided by with the Biacore 3000 instrument software.

`O=c1cc(-c2cccc(O)c2)oc2cccc(O)c12` [KCI807, 5,3′-dihydroxyflavone] gave a koff (Full length human AR) of 0.00254 s⁻¹, a kon (Full length human AR) of 36700 M⁻¹ s⁻¹ and a Kd (Full length human AR; kd=koff/kon, read-out: kd (dissociation constant)) of 69.2 nM. For the same molecule, the “growth of ZR-75-1 cells” value (ZR-75-1 cells) was “did not inhibit the growth”, the “protein level of AR or AR-V7” value [1] was “in no case did KCI807 treatment alter the protein level” and the “% body weight lost/gained” value ([2]; Day 1 after tumor implant) was 0%. For the same molecule, the “% body weight lost/gained” value ([2]; Day 2 after tumor implant) was −3.8%, the “% body weight lost/gained” value ([2]; Day 3 after tumor implant) was −4.6% and the “% body weight lost/gained” value ([2]; Day 4 after tumor implant) was −2.3%. The “% body weight lost/gained” value ([2]; Day 5 after tumor implant) was −2.3%, the “% body weight lost/gained” value ([2]; Day 6 after tumor implant) was −1.5% and the “% body weight lost/gained” value ([2]; Day 7 after tumor implant) was 0%. The “% body weight lost/gained” value ([2]; Day 8 after tumor implant) was −1.5%, the “% body weight lost/gained” value ([2]; Day 9 after tumor implant) was “+0.8%” and the “% body weight lost/gained” value ([2]; Day 10 after tumor implant) was “+0.8%”. The “% body weight lost/gained” value ([2]; Day 11 after tumor implant) was “+1.5%”, the “% body weight lost/gained” value ([2]; Day 12 after tumor implant) was “+3.1%” and the “symptoms during the study, PDX-PR011 xenograft” value ([2]; mouse, in vivo) was “asymptomatic”. The “weight loss (in words), PDX-PR011 xenograft” value ([2]; mouse, in vivo) was “did not show appreciable weight loss” and the “inhibition of binding of AR to immobilized ELK1” value (binding of AR to ELK1) was “blocked binding”.
